According to PubChem BioAssay (NCI):
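Cells were grown in 96-well plates and exposed to each compound for 48 hours at five concentrations; endpoints were interpolated linearly between bracketing concentrations, or set to the highest concentration if not reached. GI50: concentration for 50% inhibition of growth. TGI denotes the concentration required for complete inhibition of growth.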

What was measured:
Experiment in all cases: NCI anticancer screen, dose series, 48 h
[1] = test system: NCI/ADR-RES ovarian
[2] = test system: T-47D breast
[3] = test system: HCC-2998 colon
[4] = test system: KM12 colon
[5] = test system: SF-295 CNS
[6] = test system: HS 578T breast
[7] = test system: SNB-75 CNS
[8] = test system: MOLT-4 leukemia
[9] = test system: CCRF-CEM leukemia
[10] = test system: U251 CNS
[11] = test system: ACHN renal
[12] = test system: A498 renal
[13] = test system: SW-620 colon
[14] = test system: RPMI-8226 leukemia
[15] = test system: NCI-H522 lung
[16] = test system: UACC-62 melanoma
[17] = test system: NCI-H23 lung
[18] = test system: M14 melanoma
[19] = test system: IGROV1 ovarian
[20] = test system: OVCAR-8 ovarian
[21] = test system: MDA-MB-435
[22] = test system: HL-60(TB) leukemia
[23] = test system: SK-OV-3 ovarian
[24] = test system: PC-3 prostate
[25] = test system: SNB-19 CNS
[26] = test system: EKVX NSCLC
[27] = test system: K-562 leukemia
[28] = test system: HT29 colon
[29] = test system: MDA-MB-231 breast
[30] = test system: BT-549 breast
[31] = test system: A549 NSCLC
[32] = test system: 786-0 renal
[33] = test system: DU-145 prostate
[34] = test system: COLO 205 colon
[35] = test system: LOX IMVI melanoma
[36] = test system: OVCAR-5 ovarian
[37] = test system: MDA-MB-468 breast
[38] = test system: SK-MEL-28 melanoma
[39] = test system: MCF7 breast
[40] = test system: SF-268 CNS
[41] = test system: TK-10 renal
[42] = test system: OVCAR-3 ovarian
[43] = test system: SK-MEL-2 melanoma
[44] = test system: MALME-3M melanoma
[45] = test system: UO-31 renal
[46] = test system: HCT-15 colon
[47] = test system: HOP-92 NSCLC
[48] = test system: SK-MEL-5 melanoma
[49] = test system: HCT-116 colon
[50] = test system: SR leukemia
[51] = test system: OVCAR-4 ovarian
[52] = test system: NCI-H460 lung
[53] = test system: NCI-H226 lung
[54] = test system: SN12C renal
[55] = test system: SF-539 CNS
[56] = test system: HOP-62 NSCLC
[57] = test system: CAKI-1 renal
[58] = test system: UACC-257 melanoma

COc1cc(/C=C/C(=O)c2ccc(C)cc2)ccc1Oc1nc(Nc2ccc(F)cc2)nc(N(C)C)n1
GI50 [1]: 5.97 µM | TGI [1]: 27.5 µM | GI50 [2]: 3.57 µM | TGI [2]: > 100 µM | GI50 [3]: 20.5 µM | TGI [3]: 73.4 µM | GI50 [4]: 19.3 µM | TGI [4]: > 100 µM | GI50 [5]: 8.61 µM | TGI [5]: 44.3 µM | GI50 [6]: 7.24 µM | TGI [6]: 89.5 µM | GI50 [7]: 15.4 µM | TGI [7]: > 100 µM | GI50 [8]: 2.8 µM | TGI [8]: 27.7 µM | GI50 [9]: 3.92 µM | TGI [9]: > 100 µM | GI50 [10]: 3.32 µM | TGI [10]: 28.8 µM | GI50 [11]: 9.58 µM | TGI [11]: 30.7 µM | GI50 [12]: 41.8 µM | TGI [12]: > 100 µM | GI50 [13]: 2.36 µM | TGI [13]: 5.75 µM | GI50 [14]: 3 µM | TGI [14]: > 100 µM | GI50 [15]: 9.76 µM | TGI [15]: 53.2 µM | GI50 [16]: 10.1 µM | TGI [16]: 42.8 µM | GI50 [17]: 5.52 µM | TGI [17]: 27.7 µM | GI50 [18]: 14.7 µM | TGI [18]: 54.3 µM | GI50 [19]: 13.8 µM | TGI [19]: 36.9 µM | GI50 [20]: 7.19 µM | TGI [20]: 82.2 µM | GI50 [21]: 11.4 µM | TGI [21]: 28.4 µM | GI50 [22]: 19.1 µM | TGI [22]: > 100 µM | GI50 [23]: 48.9 µM | TGI [23]: > 100 µM | GI50 [24]: 8.86 µM | TGI [24]: > 100 µM | GI50 [25]: 11.1 µM | TGI [25]: 27.3 µM | GI50 [26]: 6.71 µM | TGI [26]: > 100 µM | GI50 [27]: 4.2 µM | TGI [27]: > 100 µM | GI50 [28]: 8.15 µM | TGI [28]: 37.5 µM | GI50 [29]: 5.24 µM | TGI [29]: 18.7 µM | GI50 [30]: 6.27 µM | TGI [30]: 26.8 µM | GI50 [31]: 45.8 µM | TGI [31]: > 100 µM | GI50 [32]: 13.3 µM | TGI [32]: 53.6 µM | GI50 [33]: 25.8 µM | TGI [33]: > 100 µM | GI50 [34]: 41.7 µM | TGI [34]: > 100 µM | GI50 [35]: 1.84 µM | TGI [35]: 3.51 µM | GI50 [36]: 16.5 µM | TGI [36]: 68 µM | GI50 [37]: 4.64 µM | TGI [37]: 31.8 µM | GI50 [38]: 12.3 µM | TGI [38]: 31.3 µM | GI50 [39]: 3.57 µM | TGI [39]: 20.2 µM | GI50 [40]: 13.9 µM | TGI [40]: > 100 µM | GI50 [41]: 18.2 µM | TGI [41]: > 100 µM | GI50 [42]: 13 µM | TGI [42]: > 100 µM | GI50 [43]: 8.83 µM | TGI [43]: 67.4 µM | GI50 [44]: 15.4 µM | TGI [44]: 33.3 µM | GI50 [45]: 4.2 µM | TGI [45]: 44.1 µM | GI50 [46]: 4.73 µM | TGI [46]: 16.8 µM | GI50 [47]: 4.57 µM | TGI [47]: 57.3 µM | GI50 [48]: 5.14 µM | TGI [48]: 21.7 µM | GI50 [49]: 2.28 µM | TGI [49]: 5.85 µM | GI50 [50]: 3.25 µM | TGI [50]: 70.6 µM | GI50 [51]: 7.94 µM | TGI [51]: 74.5 µM | GI50 [52]: 12.1 µM | TGI [52]: 42.8 µM | GI50 [53]: 5.22 µM | TGI [53]: 19.6 µM | GI50 [54]: 3.89 µM | TGI [54]: 20.3 µM | GI50 [55]: 7.64 µM | TGI [55]: 20.1 µM | GI50 [56]: 32.2 µM | TGI [56]: > 100 µM | GI50 [57]: 6.43 µM | TGI [57]: > 100 µM | GI50 [58]: 8.76 µM | TGI [58]: > 100 µM
